Results reported in patent US20100143992A1, “Process for Fermentive Preparation of Alcohols and Recovery of Product” (E. I du Pont de Nemours and Company, priority 2008, published 2010).

Key:
[1] = Extraction of ethanol from an aqueous solution by ionic liquid; format: physicochemical; settings: 5 vol % ionic liquid; for g/L ethanol left in solution / mM Ethanol (in solution after extraction): 3 mL aqueous solution, about 31 g/L ethanol, overnight equilibration; for g/L ethanol left in solution: control 30.2; for mM Ethanol (in solution after extraction): control 655; for % EthOH Extracted: percentage of alcohol remaining in control
Method: (§2) The extraction of ethanol and isobutanol from an aqueous solution by selected ionic liquids was evaluated. […] Ethanol and isobutanol concentration in the solution was measured using HPLC as described above following thorough mixing and overnight equilibration of the contents of the vial.

[2] = system: Lactobacillus fermentum (ATCC 14931); experiment: Glucose Uptake Index (GUI) of culture grown with ionic liquid; format: cell-based; settings: 5% (v/v) ionic liquid, 16 hours at 30° C., GUI of control without ionic liquid 55.9
Method: (§1) After 24 hours the test tube was removed and used immediately.

[3] = system: Lactobacillus zeae (ATCC 15820); experiment: as above; format: cell-based; settings: 5% (v/v) ionic liquid, 16 hours at 30° C., GUI of control without ionic liquid 61.9
Method: as §1

[4] = Extraction of isobutanol from an aqueous solution by ionic liquid; format: physicochemical; settings: 5 vol % ionic liquid; for g/L isobutanol left in solution / mM isobutanol (in solution after extraction): 3 mL aqueous solution, about 31 g/L isobutanol, overnight equilibration; for g/L isobutanol left in solution: control 32.3; for mM isobutanol (in solution after extraction): control 436; for % isobutanol Extracted: percentage of alcohol remaining in control
Method: as §2

1-Butyl-3-methylimidazolium levulinate [[BMIM] [Lev]]
g/L ethanol left in solution [1]: 27.5 g/L | mM Ethanol (in solution after extraction) [1]: 596 mM | % EthOH Extracted [1]: 8.95%

1-Ethyl-3-methylimidazolium levulinate [[EMIM] [Lev]]
GUI of Sample (Glucose Utilization Index in the presence of ionic liquid phase) [2]: 32.3 | GUI of Sample (Glucose Utilization Index in the presence of ionic liquid phase) [3]: 41.4

CC1CCC(=O)N1CC[N+](C)(C)CCO.O=S(=O)([N-]S(=O)(=O)C(F)(F)F)C(F)(F)F (centres unmarked) [[MeDHEAP] [Tf2N], 1-(N,N,N-dimethyl(hydroxyethyl)aminoethyl)-5-methylpyrrolidone-2-one bis(trifluoromethane)sulfonamide]
g/L isobutanol left in solution [4]: 30.9 g/L | mM isobutanol (in solution after extraction) [4]: 417 mM | % isobutanol Extracted [4]: 4.68%

CCOCC[N+](C)(C)CCN1C(=O)CCC1C (centres unmarked) [[MeDMEEAP] [HFPS]] [1-(N,N,N-dimethyl(ethylethoxy)aminoethyl)-5-methyl-pyrrolidine-2-one hexafluoropropanesulfonate]
GUI of Sample (Glucose Utilization Index in the presence of ionic liquid phase) [2]: 34.5 | GUI of Sample (Glucose Utilization Index in the presence of ionic liquid phase) [3]: 46.9 | g/L ethanol left in solution [1]: 30.2 g/L | mM Ethanol (in solution after extraction) [1]: 656 mM | % EthOH Extracted [1]: 0.00% | g/L isobutanol left in solution [4]: 31.3 g/L | mM isobutanol (in solution after extraction) [4]: 422 mM | % isobutanol Extracted [4]: 3.38%

CCOCC[N+](C)(C)CCN1C(=O)CCC1C (centres unmarked) [[MeDMEEAP] [Tf2N]] [1-(N,N,N-dimethyl(ethylethoxy)aminoethyl)-5-methyl-pyrrolidine-2-one bis(trifluoromethane)-sulfonamide]
GUI of Sample (Glucose Utilization Index in the presence of ionic liquid phase) [2]: 37.6 | GUI of Sample (Glucose Utilization Index in the presence of ionic liquid phase) [3]: 49.5 | g/L ethanol left in solution [1]: 29.4 g/L | mM Ethanol (in solution after extraction) [1]: 637 mM | % EthOH Extracted [1]: 2.66% | g/L isobutanol left in solution [4]: 29.5 g/L | mM isobutanol (in solution after extraction) [4]: 398 mM | % isobutanol Extracted [4]: 9.48%

COCC[N+](C)(C)CCN1C(=O)CCC1C (centres unmarked) [[MeDMMEAP] [HFPS], 1-(N,N,N-dimethyl(methylethoxy)aminoethyl)-5-methylpyrrolidin-2-one hexafluoropropanesulfonate]
GUI of Sample (Glucose Utilization Index in the presence of ionic liquid phase) [2]: 31.3 | GUI of Sample (Glucose Utilization Index in the presence of ionic liquid phase) [3]: 45.1 | g/L ethanol left in solution [1]: 29.7 g/L | mM Ethanol (in solution after extraction) [1]: 645 mM | % EthOH Extracted [1]: 1.48% | g/L isobutanol left in solution [4]: 31.4 g/L | mM isobutanol (in solution after extraction) [4]: 423 mM | % isobutanol Extracted [4]: 3.00%

CCC[N+](C)(C)CCN1C(=O)CCC1C.O=S(=O)([N-]S(=O)(=O)C(F)(F)F)C(F)(F)F (centres unmarked) [[MeDMPAP] [Tf2N], 1-(N,N,N-dimethylpropylaminoethyl)-5-methylpyrrolidone-2-one bis(trifluoromethane)sulfonamide]
g/L isobutanol left in solution [4]: 28.7 g/L | mM isobutanol (in solution after extraction) [4]: 387 mM | % isobutanol Extracted [4]: 12.7%

COCC[N+](C)(C)CCN1C(=O)CCC1C.O=S(=O)([N-]S(=O)(=O)C(F)(F)F)C(F)(F)F (centres unmarked) [[[MeDMMEAP] [Tf2N], 1-(N,N,N-dimethyl(methylethoxy)aminoethyl)-5-methylpyrrolidone-2-one bis(trifluoromethane)sulfonamide]
g/L ethanol left in solution [1]: 29.6 g/L | mM Ethanol (in solution after extraction) [1]: 643 mM | % EthOH Extracted [1]: 1.88% | g/L isobutanol left in solution [4]: 28.8 g/L | mM isobutanol (in solution after extraction) [4]: 389 mM | % isobutanol Extracted [4]: 12.1%
